Assay results: patent EP0428423A2, “Aryloxy alkyl benzenes, processes for their preparation and pharmaceutical compositions containing them” (LIPHA S.A., priority 1989, dated 1991)
Like-named read-outs stand apart in the source and are kept apart here.

Experiments:
[1] = test system: plasmas riches en plaquettes provenant de sang de rat; assay: Platelet anti-aggregation in vitro, ADP-induced (Born aggregometer); type: cell-based
Procedure: Les études ont été réalisées sur des plasmas riches en plaquettes provenant de sang de rat, l'agrégation étant induite par addition d'acide Adénosine diphosphorique. Les courbes néphélométriques d'agrégation sont obtenues en utilisant un agrégomètre de type BORN, le plasma étant placé en incubation à 37° avec agitation continue de 1100 t/mn (cf. BORN G.V.R et CROSS J. - J. Physiol. 168 (1962) 178.

COTRANSPORT Na-K = biological target: T1, COTRANSPORT Na-K (Homo sapiens, UniProt P55011); assay: Na-K cotransport of human erythrocytes; type: cell-based, ERYTHROCYTES HUMAINS
T1 construct: systèmes de transport du sodium et du potassium des érythrocytes humains; endogenous in cells; host or cells: human erythrocytes
T1 sequence (P55011 1-1212): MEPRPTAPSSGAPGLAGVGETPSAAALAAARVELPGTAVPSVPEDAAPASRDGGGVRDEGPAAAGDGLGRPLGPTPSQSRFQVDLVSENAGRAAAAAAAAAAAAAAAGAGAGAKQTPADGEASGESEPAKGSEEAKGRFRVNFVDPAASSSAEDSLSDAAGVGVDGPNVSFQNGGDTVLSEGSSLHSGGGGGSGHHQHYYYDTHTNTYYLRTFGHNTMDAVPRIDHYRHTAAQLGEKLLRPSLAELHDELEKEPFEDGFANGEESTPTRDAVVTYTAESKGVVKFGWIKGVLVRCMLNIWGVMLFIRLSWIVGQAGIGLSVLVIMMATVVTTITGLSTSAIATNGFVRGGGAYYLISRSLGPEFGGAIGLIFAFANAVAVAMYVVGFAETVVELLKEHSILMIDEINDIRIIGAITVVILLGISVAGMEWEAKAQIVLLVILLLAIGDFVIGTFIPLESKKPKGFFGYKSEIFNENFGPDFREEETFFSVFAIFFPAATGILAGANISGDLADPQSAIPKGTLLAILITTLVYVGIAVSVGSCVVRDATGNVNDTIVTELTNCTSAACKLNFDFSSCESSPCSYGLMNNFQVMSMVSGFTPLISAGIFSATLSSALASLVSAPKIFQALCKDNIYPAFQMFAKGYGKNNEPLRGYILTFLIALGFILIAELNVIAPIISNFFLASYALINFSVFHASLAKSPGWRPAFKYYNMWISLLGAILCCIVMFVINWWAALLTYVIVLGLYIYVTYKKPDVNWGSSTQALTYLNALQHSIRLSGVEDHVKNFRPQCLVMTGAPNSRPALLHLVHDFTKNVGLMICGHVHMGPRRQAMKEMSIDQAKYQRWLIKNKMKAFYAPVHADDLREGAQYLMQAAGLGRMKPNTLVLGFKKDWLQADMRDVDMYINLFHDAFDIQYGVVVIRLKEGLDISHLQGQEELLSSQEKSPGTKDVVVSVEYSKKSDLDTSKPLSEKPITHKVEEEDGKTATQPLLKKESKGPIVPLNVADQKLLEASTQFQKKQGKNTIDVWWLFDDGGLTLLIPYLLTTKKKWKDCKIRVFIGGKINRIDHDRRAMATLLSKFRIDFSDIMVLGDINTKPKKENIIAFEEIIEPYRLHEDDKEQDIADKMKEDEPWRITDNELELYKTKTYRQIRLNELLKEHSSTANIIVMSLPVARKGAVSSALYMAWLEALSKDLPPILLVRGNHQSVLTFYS
From the text: Cet effet a été étudié selon la méthodologie décrite par G. GARAY et coll. dans Naunyn-Schmidberg's Arch. Pharmakol. […] Pharm.

RAT = assay: Diuretic activity in the rat (hourly urine volume, sodium and potassium assay); type: in vivo; conditions: for minimal effective dose: po, read-out: Dose minimale active; for Pouvoir diurétique en % / Rapport Na/K en %: PO, at the dose (minimal active dose)
From the text: (§1) d'urine sont déterminés toutes les heures. Le dosage de sodium et du potassium est effectué par spectrophotométrie.

SOURIS = assay: Diuretic activity in the mouse (hourly urine volume, sodium and potassium assay); type: in vivo; conditions: for minimal effective dose: Mus musculus, po, read-out: Dose minimale active; for Pouvoir diurétique en % / Rapport Na/K en %: PO, at the dose (minimal active dose)
From the text: as §1

ECHANGEUR D'ANIONS = biological target: T2, ECHANGEUR D'ANIONS (Homo sapiens, UniProt P02730); assay: Anion exchanger of human erythrocytes; type: cell-based, ERYTHROCYTES HUMAINS; conditions: for IC50: read-out: EFFET SUR L'ECHANGEUR D'ANIONS IC 50
T2 construct: systèmes de transport du sodium et du potassium des érythrocytes humains; endogenous in cells; host or cells: human erythrocytes
T2 sequence (P02730 1-911): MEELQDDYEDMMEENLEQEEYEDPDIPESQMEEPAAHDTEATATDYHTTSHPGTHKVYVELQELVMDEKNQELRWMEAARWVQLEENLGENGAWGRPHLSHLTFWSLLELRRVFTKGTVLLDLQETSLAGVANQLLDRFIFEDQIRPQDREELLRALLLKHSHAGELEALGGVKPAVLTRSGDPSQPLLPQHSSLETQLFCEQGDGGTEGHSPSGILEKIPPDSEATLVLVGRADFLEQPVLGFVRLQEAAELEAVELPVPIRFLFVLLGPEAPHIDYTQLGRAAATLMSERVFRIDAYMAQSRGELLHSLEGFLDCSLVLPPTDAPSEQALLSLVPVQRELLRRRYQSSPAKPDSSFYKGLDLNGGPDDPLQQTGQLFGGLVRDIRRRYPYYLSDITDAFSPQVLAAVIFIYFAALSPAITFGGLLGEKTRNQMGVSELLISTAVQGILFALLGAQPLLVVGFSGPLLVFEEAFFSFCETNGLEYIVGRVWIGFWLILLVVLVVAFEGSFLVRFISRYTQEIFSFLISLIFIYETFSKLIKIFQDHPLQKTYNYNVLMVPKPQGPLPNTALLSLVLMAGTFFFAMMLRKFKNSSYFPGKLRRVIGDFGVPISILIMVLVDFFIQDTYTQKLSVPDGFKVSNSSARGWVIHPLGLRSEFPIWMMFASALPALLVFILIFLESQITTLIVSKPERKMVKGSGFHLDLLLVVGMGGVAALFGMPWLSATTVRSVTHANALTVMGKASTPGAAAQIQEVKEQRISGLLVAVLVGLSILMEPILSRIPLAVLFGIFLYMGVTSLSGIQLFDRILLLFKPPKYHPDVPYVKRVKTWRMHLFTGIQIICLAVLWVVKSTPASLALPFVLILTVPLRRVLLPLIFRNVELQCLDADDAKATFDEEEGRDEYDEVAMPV
From the text: Cet effet a été étudié selon la méthodologie décrite par G. GARAY et coll. dans Naunyn-Schmidberg's Arch. Pharmakol. 334 (1986) 202-209 et dans Bioch. Pharm. 33 (1984) 2013-2020.

[2] = in vitro, aggregating agent ADP, rat platelet-rich plasma, 37°, M not defined in the text, mM printed only in the TICLOPIDINE line, read-out: M à 50
[3] = human erythrocytes, read-out: EFFET SUR LE COTRANSPORT Na-K IC 50

## CCCc1cccc(CCOc2ccc(F)cc2)c1O [Ex 86]
[1]; [2]
  IC50: 1.55 mM

## O=P(O)(O)Oc1ccccc1CCOc1ccc(F)cc1 [ex 134]
COTRANSPORT Na-K; human erythrocytes
  EFFET SUR LE COTRANSPORT Na-K IC 50: Non actif
RAT; Rattus norvegicus
  minimal effective dose: 6 mg/kg
SOURIS
  minimal effective dose: 25 mg/kg
ECHANGEUR D'ANIONS
  EFFET SUR L'ECHANGEUR D'ANIONS IC 50: Non actif
[1]; Rattus norvegicus, Platelet, read-out: M à 50
  IC50: 1.3 mM
[1]; Rattus norvegicus, Platelet, read-out: V à 50
  IC50: 1.5 mM

## Oc1ccc(OCCc2ccccc2O)cc1 [Ex 84]
[1]; [2]
  IC50: 0.75 mM

## Cc1ccc(O)c(CCOc2ccc(F)cc2)c1 [Ex 54]
[1]; in vitro, aggregating agent ADP, rat platelet-rich plasma, 37°, M not defined in the text, mM printed only in the TICLOPIDINE line
  M à 50: inactif

## Oc1c(CCOc2ccc(F)cc2)ccc2ccccc12 [ex 46]
COTRANSPORT Na-K; [3]
  IC50: 95 µM
RAT; R = RAT
  Pouvoir diurétique en %: R : Inactif S : Inactif
  Rapport Na/K en %: R : Inactif S : Inactif
SOURIS; S = SOURIS
  Pouvoir diurétique en %: R : Inactif S : Inactif
  Rapport Na/K en %: R : Inactif S : Inactif
ECHANGEUR D'ANIONS
  IC50: 200 µM

## CCOC(=O)c1ccc(OCCc2ccccc2O)cc1 [Ex 90]
[1]; [2]
  IC50: 0.5 mM

## CC(C)c1ccc(O)c(CCOc2ccc(F)cc2)c1 [Ex 82]
[1]; [2]
  IC50: 0.55 mM

## CC(C)(C)c1ccc(O)c(CCOc2ccc(F)cc2)c1 [Ex 52]
[1]; [2]
  IC50: 0.75 mM

## Oc1ccccc1CCOc1ccccc1 [Ex 12]
[1]; [2]
  IC50: 1.6 mM

## COc1ccc(O)c(CCOc2ccc(Cl)cc2)c1 [ex 26]
COTRANSPORT Na-K; [3]
  IC50: 70 µM
RAT; R = RAT, diuretic activity
  minimal effective dose: 50 mg/kg
SOURIS; S = SOURIS, diuretic activity
  minimal effective dose: 100 mg/kg
ECHANGEUR D'ANIONS
  IC50: 40 µM

## Oc1ccc(Oc2ccccc2)cc1CCOc1ccc(F)cc1 [Ex 100]
[1]; [2]
  IC50: 1.1 mM

## Oc1cccc(CCOc2ccc(F)cc2)c1 [Ex 174]
[1]; [2]
  IC50: 0.4 mM

## Oc1ccccc1CCOc1ccc(F)cc1 [ex 30]
COTRANSPORT Na-K; [3]
  IC50: 170 µM
RAT; R = RAT, diuretic activity
  minimal effective dose: 12 mg/kg
SOURIS; S = SOURIS, diuretic activity
  minimal effective dose: 25 mg/kg
ECHANGEUR D'ANIONS
  IC50: 4 µM
[1]; [2]
  IC50: 0.8 mM

## Oc1ccccc1CCOc1ccc2ccccc2c1 [ex 56]
COTRANSPORT Na-K; [3]
  IC50: 95 µM
RAT; R = RAT
  Pouvoir diurétique en %: R : Inactif S : Inactif
  Rapport Na/K en %: R : Inactif S : Inactif
SOURIS; S = SOURIS
  Pouvoir diurétique en %: R : Inactif S : Inactif
  Rapport Na/K en %: R : Inactif S : Inactif
ECHANGEUR D'ANIONS
  IC50: 200 µM
[1]; [2]
  IC50: 0.3 mM

## O=C(Oc1ccccc1CCOc1ccc(F)cc1)c1cccnc1 [Ex 129]
[1]; [2]
  IC50: 0.6 mM

## CCCCNc1cc(C(=O)O)cc(S(N)(=O)=O)c1Oc1ccccc1 [BUMETANIDE, reference compound]
COTRANSPORT Na-K
  IC50: 0.66 µM
ECHANGEUR D'ANIONS
  IC50: 300 µM
